Data on 22 compounds can be found in US11312721B2 (priority 2015, dated 2022).

Usually Ki stands for a measure of affinity in units of concentration, obtained from inhibition or displacement.

One data set addresses T1, GABAA receptors (α5β2γ2) (Homo sapiens, UniProt P18507+P31644).
T1 construct: expressed in transfected cells
The experiment in a line: Positive allosteric modulator activity: potentiation of EC20 GABA current in oocytes. To be noted: read-out: GABA α5 functional potentiation. Type of data set: cell-based. How it is done: On day 1, 1 ng/32 nL of GABAA α5β2γ2 cDNA was injected into one oocyte. Test starts on day 2. The cDNA injected to the oocytes was a mix of alpha, beta and gamma, their ratio is 1:1:10 (by weight) and the total weight of the mixed 3 subunits to be injected in one oocyte was 1 ng in 32 nl volume. The injected oocytes can also be tested on day 3. In such case, the cDNA amount injected to the oocytes should be reduced by 20%.
1). 8 oocytes were placed in 8 chambers of OpusXpress and superfused with Modified Barth's Saline (MBS) at 3 mL/min. Glass electrodes back-filled with 3M KCl (0.5-3 megaohms) were used.
1). Repeat the above steps 1), 2) and 3) in the control test.
2). […] Divide Itest by IGABA to obtain potentiation (%).
3). Discard all tested oocytes, new oocytes were used and the above steps 1) and 2) were repeated to test second concentration of the same compound. Each oocyte was used for only one concentration test for a single test compound. The steps were repeated for other test compounds.

Data set [1] addresses T2, α5β3γ2 GABAA receptors (Ltk cells) (Homo sapiens, UniProt P18507+P31644).
T2 construct: membranes
The experiment in a line: Binding activity on GABAAR: inhibition of [3H]Ro15-1788 binding. How it is done:
Tissue culture and Membrane Preparation: The binding was performed on Ltk cells stably expressing GABAA receptors: α1β1γ2, α2β3γ2, α3β3γ2 and α5β3γ2 (provided by Merck Co., NJ, USA). Cells were seeded in 100 mm culture plates in DMEM/F12 medium containing 10% serum and antibiotics in 5% CO2 and allowed to grow for 1-2 days. GABAAR expression was then induced by dexamethasone as follows: 0.5 μM for 1 day for α5 containing and 2 μM for 3 days for α1, α2 and α3 containing GABAARs. After induction, cells were collected by scraping into Dulbecco's Phosphate buffered saline (DPBS, pH 7.4, Invitrogen, Carlsbad, Calif., USA) and centrifuged at 150×g for 10 min. The pellet was washed twice by re-suspension and centrifugation. The cell pellets from at least 5 different preps were combined, suspended in the binding assay buffer (50 mM KH2PO4; 1 mM EDTA; 0.2 M KCl, pH 7.4) and membranes prepared by sonication (3-5 times, 30 sec) using Branson Sonifier 150 (G. Heinmann, Germany). Protein content was determined using BCA assay (Bio-Rad Labs, Reinach, Switzerland) with Bovine Serum Albumin (Sigma Aldrich, St. Louis, Mo., USA) as the standard. Aliquots were prepared and stored at −20° C. for further use in binding assays.
Ligand Binding: Saturation binding curves were obtained by incubating membranes with increasing concentrations (0.01-8 nM) of [^3H]Ro15-1788 (Flumazepil, 75-85 Ci/mmol, PerkinElmer, MA, USA), with nonspecific binding measured in the presence of 10 μM diazepam.
All binding assays were performed for 1 h at 4° C. in assay buffer. The total assay volume was 0.5 ml containing 0.2 mg/ml protein for α5 and 0.4 mg/ml for α1, α2, and α3 containing GABAAR membranes. Incubations were terminated by filtration through GF/B filters using a 24-Cell Harvestor (Brandel, Gaithersburg, Md., USA) followed by 3 washes with ice-cold assay buffer. Filters were transferred to scintillation vials, 5 ml scintillation liquid added, vortex-mixed and kept in dark. Next day, radioactivity was obtained using a scintillation counter (Beckman Coulter, Brea, Calif., USA). All assays were performed in triplicate.
Data Analyses: Saturation and inhibition curves were obtained using GraphPad Prism software (GraphPad Software, Inc., CA, USA).

The target in a further data set is T3, GABAA α5 receptor (Rattus norvegicus, UniProt P19969).
T3 construct: from tissue
The experiment in a line: GABAA α5 receptor occupancy in vivo with Ro 15-4513 tracer. To be noted: for effect on Ro 15-4513 binding in hippocampus and cerebellum: 0.01-10 mg/kg. The arrangement: species or system Long Evans rats. An excerpt:
Food and water were available ad libitum.

For the next data set, the system named is aged-impaired (AI) rats. Nature of the data set: Radial Arm Maze (RAM) behavioral task, spatial memory retention. It counts as in vivo, rat. The conditions noted are these: four-hour delay RAM. How it is done:
The effects of methyl 3,5-diphenylpyridazine-4-carboxylate on the in vivo spatial memory retention of aged-impaired (AI) rats were assessed in a Radial Arm Maze (RAM) behavioral task using vehicle control and four different dosage levels of methyl 3,5-diphenylpyridazine-4-carboxylate ([…]). RAM behavioral tasks were performed on eight AI rats. All five treatment conditions (vehicle and four dosage levels) were tested on all eight rats.
The RAM apparatus used consisted of eight equidistantly-spaced arms. An elevated maze arm (7 cm width×75 cm length) projected from each facet of an octagonal center platform (30 cm diameter, 51.5 cm height). Clear side walls on the arms were 10 cm high and were angled at […] to form a trough. A food well (4 cm diameter, 2 cm deep) was located at the distal end of each arm. Froot Loops™ (Kellogg Company) were used as rewards. Blocks constructed of Plexiglas™ (30 cm height×12 cm width) could be positioned to prevent entry to any arm. Numerous extra maze cues surrounding the apparatus were also provided.
The AI rats were initially subjected to a pre-training test (Chappell et al. Neuropharmacology 37: 481-487, 1998). The pre-training test consisted of a habituation phase (4 days), a training phase on the standard win-shift task (18 days) and another training phase (14 days) in which a brief delay was imposed between presentation of a subset of arms designated by the experimenter (e.g., 5 arms available and 3 arms blocked) and completion of the eight-arm win-shift task (i.e., with all eight arms available).
In the habituation phase, rats were familiarized to the maze for an 8-minute session on four consecutive days. In each of these sessions, food rewards were scattered on the RAM, initially on the center platform and arms and then progressively confined to the arms. After this habituation phase, a standard training protocol was used, in which a food pellet was located at the end of each arm. Rats received one trial each day for 18 days. Each daily trial terminated when all eight food pellets had been obtained or when either 16 choices were made or 15 minutes had elapsed. After completion of this training phase, a second training phase was carried out in which the memory demand was increased by imposing a brief delay during the trial. At the beginning of each trial, three arms of the eight-arm maze were blocked. Rats were allowed to obtain food on the five arms to which access was permitted during this initial “information phase” of the trial. Rats were then removed from the maze for 60 seconds, during which time the barriers on the maze were removed, thus allowing access to all eight arms. Rats were then placed back onto the center platform and allowed to obtain the remaining food rewards during this “retention test” phase of the trial. […]

T1 sequence (P31644 32-462): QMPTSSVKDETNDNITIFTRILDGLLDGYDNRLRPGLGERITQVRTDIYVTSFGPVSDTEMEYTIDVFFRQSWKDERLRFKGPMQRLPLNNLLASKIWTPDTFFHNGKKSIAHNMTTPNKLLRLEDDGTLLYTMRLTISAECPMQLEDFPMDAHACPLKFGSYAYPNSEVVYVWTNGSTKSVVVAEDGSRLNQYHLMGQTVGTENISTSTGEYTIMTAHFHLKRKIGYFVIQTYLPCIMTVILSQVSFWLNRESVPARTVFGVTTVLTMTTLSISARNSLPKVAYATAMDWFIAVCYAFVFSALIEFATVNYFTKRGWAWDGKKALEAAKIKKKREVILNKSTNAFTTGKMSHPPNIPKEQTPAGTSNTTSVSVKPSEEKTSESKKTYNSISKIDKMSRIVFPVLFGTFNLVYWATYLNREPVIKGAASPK
T1 sequence (P47870 25-512 partner limits assumed): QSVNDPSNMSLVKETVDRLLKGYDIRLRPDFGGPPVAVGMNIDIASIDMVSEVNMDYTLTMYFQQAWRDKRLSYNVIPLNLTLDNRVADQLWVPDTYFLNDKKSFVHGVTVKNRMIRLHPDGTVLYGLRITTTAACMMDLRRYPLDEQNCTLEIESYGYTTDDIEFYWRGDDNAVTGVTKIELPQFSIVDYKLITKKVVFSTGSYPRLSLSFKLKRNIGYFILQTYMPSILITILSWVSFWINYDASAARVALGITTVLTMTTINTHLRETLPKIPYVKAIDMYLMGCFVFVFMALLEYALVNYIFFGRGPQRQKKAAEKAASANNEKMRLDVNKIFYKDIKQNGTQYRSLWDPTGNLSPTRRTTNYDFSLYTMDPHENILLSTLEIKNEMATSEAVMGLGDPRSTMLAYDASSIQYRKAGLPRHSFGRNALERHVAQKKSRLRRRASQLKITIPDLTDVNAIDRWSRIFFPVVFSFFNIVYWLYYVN
T1 sequence (P18507 40-475): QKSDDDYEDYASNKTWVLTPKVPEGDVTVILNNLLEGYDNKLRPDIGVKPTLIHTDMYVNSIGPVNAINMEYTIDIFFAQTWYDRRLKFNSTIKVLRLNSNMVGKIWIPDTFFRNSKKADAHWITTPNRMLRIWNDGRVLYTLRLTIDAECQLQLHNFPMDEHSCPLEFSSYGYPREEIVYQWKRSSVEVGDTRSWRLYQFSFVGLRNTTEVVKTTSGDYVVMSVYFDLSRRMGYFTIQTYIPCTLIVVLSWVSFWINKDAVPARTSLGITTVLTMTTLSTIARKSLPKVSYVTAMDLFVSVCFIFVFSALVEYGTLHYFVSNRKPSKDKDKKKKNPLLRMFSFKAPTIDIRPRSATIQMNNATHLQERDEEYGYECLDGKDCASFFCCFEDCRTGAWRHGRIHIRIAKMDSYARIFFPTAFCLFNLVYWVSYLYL
T2 sequence (P31644 32-462): as the sequence (P31644 32-462) above
T2 sequence (P28472 26-473 partner): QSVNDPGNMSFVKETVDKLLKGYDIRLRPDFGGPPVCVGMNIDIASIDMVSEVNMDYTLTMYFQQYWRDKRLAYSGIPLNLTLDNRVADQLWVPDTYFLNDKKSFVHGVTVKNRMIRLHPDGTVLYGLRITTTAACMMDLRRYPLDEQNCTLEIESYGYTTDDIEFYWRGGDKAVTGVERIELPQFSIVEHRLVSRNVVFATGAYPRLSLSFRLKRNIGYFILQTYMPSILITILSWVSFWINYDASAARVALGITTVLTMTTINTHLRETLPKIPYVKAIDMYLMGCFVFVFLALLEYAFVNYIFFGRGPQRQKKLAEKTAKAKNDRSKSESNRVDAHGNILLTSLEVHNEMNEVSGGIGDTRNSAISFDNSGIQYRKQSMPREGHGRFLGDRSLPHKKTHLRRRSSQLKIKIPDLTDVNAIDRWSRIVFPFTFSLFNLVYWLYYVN
T2 sequence (P18507 40-475): as the sequence (P18507 40-475) above
T3 sequence (P19969 32-464 limits assumed): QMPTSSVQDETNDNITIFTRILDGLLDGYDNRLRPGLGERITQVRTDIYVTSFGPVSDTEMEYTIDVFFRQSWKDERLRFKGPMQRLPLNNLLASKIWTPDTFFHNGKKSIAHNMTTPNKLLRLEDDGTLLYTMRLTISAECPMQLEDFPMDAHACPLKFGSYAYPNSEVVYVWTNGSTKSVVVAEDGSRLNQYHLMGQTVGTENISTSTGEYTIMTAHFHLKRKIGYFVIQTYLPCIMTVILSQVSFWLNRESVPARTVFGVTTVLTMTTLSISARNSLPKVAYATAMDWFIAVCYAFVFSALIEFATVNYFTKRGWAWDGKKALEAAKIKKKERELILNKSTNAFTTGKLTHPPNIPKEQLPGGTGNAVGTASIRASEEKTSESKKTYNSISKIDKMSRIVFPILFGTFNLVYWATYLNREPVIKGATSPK

For the compound `COc1ccc2c(c1)-c1nnc(COCc3cccnc3)n1Cc1c(-c3noc(C(C)C)n3)ncn1-2` [Compound 203], the activation at 0.1 µM at GABAA receptors (α5β2γ2) lay within 20 to 49%. The same compound had a Ki in data set [1] of less than 0.099 µM.

Consider `C#Cc1ncn2c1Cn1c(COc3ccccc3)nnc1-c1cc(Cl)ccc1-2` [Compound 205], for which the activation at 0.1 µM at GABAA receptors (α5β2γ2) was in the range of 20 to 49%. Also, the Ki in data set [1] was less than 0.099 µM.

For `COc1ccc2c(c1)-n1nnc(Cc3ccccc3)c1Cc1c(C#N)ncn1-2` [Compound 207], the activation at 0.1 µM at GABAA receptors (α5β2γ2) fell in the range of 20 to 49%. Moreover, the Ki in data set [1] was less than 0.099 µM.

Turning to `COc1ccc2c(c1)-n1nnc(Cc3cccnc3)c1Cc1c(C#N)ncn1-2` [Compound 210], the activation at 0.1 µM on GABAA receptors (α5β2γ2) fell in the range of 20 to 49%. Further, the Ki in data set [1] was less than 0.099 µM.

Turning to `COc1ccc2c(c1)-n1nnc(COc3ccc(F)cc3)c1Cc1c(C#N)ncn1-2` [Compound 222], the activation at 0.1 µM on GABAA receptors (α5β2γ2) lay within 20 to 49%. In data set [1], this compound gave a Ki of less than 0.099 µM.

For `COc1ccc2c(c1)-n1nnc(COc3ccccc3)c1Cc1c(C#N)ncn1-2` [Compound 224], at GABAA receptors (α5β2γ2), the activation at 0.1 µM was 20 to 49%. The compound further returned a Ki in data set [1] of less than 0.099 µM.

For `COc1ccc2c(c1)-n1nnc(COc3cccc(Br)c3)c1Cc1c(C#N)ncn1-2` [Compound 225], the activation at 0.1 µM on GABAA receptors (α5β2γ2) was in the range of 20 to 49%. In data set [1], this compound registered a Ki of less than 0.099 µM.

With `N#Cc1ncn2c1Cc1c(COc3ccccc3)nnn1-c1cc(Cl)ccc1-2` [Compound 226], the activation at 0.1 µM at GABAA receptors (α5β2γ2) fell in the range of 20 to 49%. The same compound registered a Ki in data set [1] of less than 0.099 µM.

In the case of `COCc1nnc2n1Cc1c(C3=NCCO3)ncn1-c1ccc(Cl)cc1-2` [Compound 238], the activation at 0.1 µM at GABAA receptors (α5β2γ2) was in the range of 20 to 49%. The Ki in data set [1] was less than 0.099 µM.

`COCc1nnc2n1Cc1c(C3=NC(C)CO3)ncn1-c1ccc(Cl)cc1-2` (centres unmarked) [Compound 243]: the activation at 0.1 µM at GABAA receptors (α5β2γ2) fell in the range of 20 to 49%. Further, the Ki in data set [1] was less than 0.099 µM.

Consider `COCc1nnc2n1Cc1c(-c3ncco3)ncn1-c1ccc(Cl)cc1-2` [Compound 249], for which the activation at 0.1 µM on GABAA receptors (α5β2γ2) was 20 to 49%. This compound also registered an inhibition constant (Ki) in data set [1] of less than 0.099 µM.

Take `CCOCc1nnc2n1Cc1c(-c3nc(C(C)C)no3)ncn1-c1ccc(Cl)cc1-2` [Compound 254]: on GABAA receptors (α5β2γ2), the activation at 0.1 µM lay within 20 to 49%. The same compound yielded a Ki in data set [1] of less than 0.099 µM.

In the case of `CCOCc1nnc2n1Cc1c(-c3nc(C)no3)ncn1-c1ccc(Cl)cc1-2` [Compound 255], the activation at 0.1 µM at GABAA receptors (α5β2γ2) fell in the range of 20 to 49%. Moreover, the Ki in data set [1] was less than 0.099 µM.

As to `C#Cc1ncn2c1Cn1c(COC)nnc1-c1cc(Cl)ccc1-2` [Compound 256], at GABAA receptors (α5β2γ2), the activation at 0.1 µM lay within 20 to 49%. This compound gave a Ki in data set [1] of less than 0.099 µM.

On to `COc1ccc2c(c1)-n1nncc1Cc1c(-c3nc(C(C)C)no3)ncn1-2` [Compound 257], for which the activation at 0.1 µM on GABAA receptors (α5β2γ2) was in the range of 20 to 49%. Further, in data set [1], the Ki is less than 0.099 µM.

For `COCc1nnc2n1Cc1c(C3=N[C@@H](c4ccccc4)CO3)ncn1-c1ccc(Cl)cc1-2` [Compound 264], the activation at 0.1 µM at GABAA receptors (α5β2γ2) lay in the range of 20 to 49%. Moreover, the Ki in data set [1] is less than 0.099 µM.

Regarding `CCOCc1nnc2n1Cc1c(C3=N[C@H](c4ccccc4)CO3)ncn1-c1ccc(Cl)cc1-2` [Compound 271], the activation at 0.1 µM on GABAA receptors (α5β2γ2) was more than 50%. In data set [1], this compound registered a Ki of less than 0.099 µM.

On to `COc1ccc2c(c1)-n1nncc1Cc1c(C3=N[C@H](c4ccccc4)CO3)ncn1-2` [Compound 290], for which, at GABAA receptors (α5β2γ2), the activation at 0.1 µM fell in the range of 20 to 49%. The compound also yielded a Ki in data set [1] of less than 0.099 µM.

As to `COCc1nnc2n1Cc1c(C#Cc3ccccc3C)ncn1-c1ccc(Cl)cc1-2` [Compound 293], the activation at 0.1 µM at GABAA receptors (α5β2γ2) fell in the range of 20 to 49%. The Ki in data set [1] was less than 0.099 µM.

For the compound `CCOC(=O)c1ncn2c1Cn1c(C)nnc1-c1cc(OC)ccc1-2` [Ethyl 3-methoxy-7-methyl-9H-benzo[f]imidazo[1,5-a][1,2,4]tri], at GABAA α5 receptor (i.v.), the “effect on Ro 15-4513 binding in hippocampus and cerebellum” value is listed as “blocked the binding of Ro154513 in the hippocampus but did not affect binding of Ro15413 in the cerebellum”.

For the compound `CCOC(=O)c1ncn2c1CN(C)C(=O)c1cc(N=[N+]=[N-])ccc1-2` [Ro 15-4513], on GABAA α5 receptor (1 μg/kg, i.v. tracer after vehicle), the “tracer level, hippocampus compared with cerebellum” value is on record as more than 5 fold.

For `CCOC(=O)c1ncn2c1Cn1c(C)nnc1-c1cc(OC)ccc1-2` [ethyl 3-methoxy-7-methyl-9H-benzo[f]imidazo[1,5-a][1,2,4]tri], the “memory performance relative to vehicle control” value is given as “significantly improved memory performance” with aged-impaired (AI) rats (3 mg/kg, t(7)=4.13, p=0.004, or t(7)=3.08, p=0.018) and “significantly improved memory performance” in the data set with aged-impaired (AI) rats (10 mg/kg, t(7)=2.82, p=0.026). The “effect on Ro 15-4513 binding in hippocampus and cerebellum” value on GABAA α5 receptor (i.v.) is reported as “reduced Ro 15-4513 binding in hippocampus, without affecting cerebellum levels of Ro 15-4513”. Besides, the “GABAA α5 receptor occupancy” value at GABAA α5 receptor (10 mg/kg, i.v.) is on record as more than 90%.
